Patent publication US20230092679A1, “MCL-1 INHIBITOR ANTIBODY-DRUG CONJUGATES AND METHODS OF USE” (NOVARTIS AG, priority 2019, published 2023)

Key:
Format in all cases: cell-based
ko52 = assay: In vitro ADC activity, AML cell lines, CellTiter-Glo (Example 20); settings: ko52, 5 days
monomac1 = assay: as above; settings: monomac1, 5 days
ociaml2 = assay: as above; settings: ociaml2, 5 days
monomac6 = assay: as above; settings: monomac6, 5 days
molm16 = assay: as above; settings: molm16, 5 days
various MM cell lines = assay: In vitro ADC activity, MM cell lines, CellTiter-Glo (Example 20, Table 39); settings: 5 days treatment; for Amax: in %
ociaml5 = assay: In vitro ADC activity, AML cell lines, CellTiter-Glo (Example 20); settings: ociaml5, 5 days
kasumi6 = assay: as above; settings: kasumi6, 5 days
kg1 = assay: as above; settings: kg1, 5 days
mv411 = assay: as above; settings: mv411, 5 days
5979hx = assay: as above; settings: 5 days

In the case of `COc1ccccc1-c1nccc(COc2ccccc2C[C@@H](Oc2ncnc3sc(-c4ccc(F)cc4)c(-c4ccc(OCCN5CCN(C)CC5)c(Cl)c4C)c23)C(=O)O)n1` [P1, (2R)-2-[5-[3-chloro-2-methyl-4-[2-(4-methylpiperazin-1-yl)ethoxy]phenyl]-6-(4-fluorophenyl)thieno[2,3-d]pyrimidin-4-yl]oxy-3-[2-[[2-(2-methoxyphenyl)pyrimidin-4-yl]methoxy]phenyl]propanoic acid], the GI50 (ko52; 120 h) is reported as 500 nM, the Amax (ko52; in % (unit assumed)) is reported as −75 and the GI50 (monomac1; Mono-Mac-1, 120 h) is reported as 1 nM. For the same molecule, the Amax (monomac1; in % (unit assumed)) was −66, the GI50 (ociaml2; Homo sapiens, OCI-AML2, 120 h) was 127 nM and the Amax (ociaml2; in % (unit assumed)) was −50. The GI50 (monomac6; Homo sapiens, MONO-MAC-6, 120 h) was 1 nM, the Amax (monomac6; in % (unit assumed)) was −43 and the GI50 (molm16; 120 h) was 45 nM. It also gave an Amax (molm16; in % (unit assumed)) of −76, a GI50 (various MM cell lines; 120 h, Ip1 cell line) of 7 nM and a GI50 (various MM cell lines; 120 h, u266b1 cell line) of 283 nM. It also gave a GI50 (various MM cell lines; Homo sapiens, AMO1, 120 h, amo1 cell line) of 5 nM, a GI50 (various MM cell lines; Homo sapiens, EJM, 120 h, ejm cell line) of 61 nM and a GI50 (various MM cell lines; Homo sapiens, KMS-11, 120 h, kms11 cell line) of 98 nM. For the same molecule, the GI50 (various MM cell lines; Homo sapiens, KMS-12-BM, 120 h, kms12bm cell line) was 11 nM, the GI50 (various MM cell lines; Homo sapiens, L-363, 120 h, L363 cell line) was 3 nM and the GI50 (various MM cell lines; Homo sapiens, MOLP-8, 120 h, molp8 cell line) was 1 nM. The GI50 (various MM cell lines; Homo sapiens, NCI-H929, 120 h, h929 cell line) was 1 nM, the GI50 (various MM cell lines; Homo sapiens, OPM-2, 120 h, opm2 cell line) was 1 nM and the GI50 (various MM cell lines; Homo sapiens, RPMI-8226, 120 h, rpmi8226 cell line) was 2 nM. For the same molecule, the GI50 (various MM cell lines; Homo sapiens, SK-MM-2, 120 h, skmm2 cell line) was > 10000 nM, the Amax (various MM cell lines; Ip1 cell line) was −58 and the GI50 (various MM cell lines; KE-97, 120 h, ke97 cell line) was 7910 nM. It also gave a GI50 (various MM cell lines; KHM-1B, 120 h, khm1b cell line) of 2 nM, a GI50 (various MM cell lines; KMM-1, 120 h, kmm1 cell line) of 154 nM and a GI50 (various MM cell lines; KMS-20, 120 h, kms20 cell line) of 8 nM. The GI50 (various MM cell lines; KMS-21BM, 120 h, kms21bm cell line) was 1 nM, the GI50 (various MM cell lines; KMS-26, 120 h, kms26 cell line) was 60 nM and the GI50 (various MM cell lines; KMS-27, 120 h, kms27 cell line) was 1 nM. It also gave a GI50 (various MM cell lines; KMS-28BM, 120 h, kms28bm cell line) of 6 nM, a GI50 (various MM cell lines; KMS-34, 120 h, kms34 cell line) of 498 nM and a GI50 (various MM cell lines; Karpas-620, 120 h, karpas620 cell line) of 205 nM. It also gave an Amax (various MM cell lines; L363 cell line) of −47, an Amax (various MM cell lines; amo1 cell line) of −20 and an Amax (various MM cell lines; ejm cell line) of −93. The Amax (various MM cell lines; h929 cell line) was −74, the Amax (various MM cell lines; karpas620 cell line) was −43 and the Amax (various MM cell lines; ke97 cell line) was 21. It also gave an Amax (various MM cell lines; khm1b cell line) of −84, an Amax (various MM cell lines; kmm1 cell line) of −67 and an Amax (various MM cell lines; kms11 cell line) of −62. For the same molecule, the Amax (various MM cell lines; kms12bm cell line) was −79, the Amax (various MM cell lines; kms20 cell line) was −88 and the Amax (various MM cell lines; kms21bm cell line) was −76. For the same molecule, the Amax (various MM cell lines; kms26 cell line) was −49, the Amax (various MM cell lines; kms27 cell line) was −89 and the Amax (various MM cell lines; kms28bm cell line) was −42. It also gave an Amax (various MM cell lines; kms34 cell line) of −64, an Amax (various MM cell lines; molp8 cell line) of −74 and an Amax (various MM cell lines; opm2 cell line) of −77. For the same molecule, the Amax (various MM cell lines; rpmi8226 cell line) was −91, the Amax (various MM cell lines; skmm2 cell line) was 112 and the Amax (various MM cell lines; u266b1 cell line) was −24. The GI50 (ociaml5; Homo sapiens, OCI-AML-5, 120 h) was 265 nM, the Amax (ociaml5; unit assumed) was 4% and the GI50 (kasumi6; 120 h) was 4 nM. It also gave an Amax (kasumi6; in % (unit assumed)) of −96, a GI50 (kg1; Homo sapiens, KG-1, 120 h) of 861 nM and an Amax (kg1; in % (unit assumed)) of −69. It also gave a GI50 (mv411; Homo sapiens, MV4-11, 120 h) of 1 nM, an Amax (mv411; in % (unit assumed)) of −72 and a GI50 (5979hx; 120 h) of 1 nM. The Amax (5979hx) was −83.
